Measurements taken from patent US20150051203A1, “TRIAZOLE DERIVATIVES AS HSP90 INHIBITORS” (Synta Pharmaceuticals Corp., priority 2012, published 2015).
Like-named read-outs stand apart in the source and are kept apart here.

Tests used:
[1] = system: Her2; assay: Degradation of Her2 in BT-474 cells (Western blot, Method 1); assay type: cell-based, Human; conditions: 0.5 μM, overnight
Protocol: BT-474 cells are treated with 0.5 μM, 2 μM, or 5 μM of 17AAG (a positive control) or 0.5 μM, 2 μM, or 5 μM of a compound of the invention overnight in DMEM medium. After treatment, each cytoplasmic sample is prepared from 1×10^6 cells by incubation of cell lysis buffer (#9803, Cell Signaling Technology) on ice for 10 minutes. The resulting supernatant used as the cytosol fractions is dissolved with sample buffer for SDS-PAGE and run on a SDS-PAGE gel, blotted onto a nitrocellulose membrane by using semi-dry transfer. Non-specific binding to nitrocellulose is blocked with 5% skim milk in TBS with 0.5% Tween at room temperature for 1 hour, then probed with anti-Her2/ErB2 mAb (rabbit IgG, #2242, Cell Signaling) and anti-Tubulin (T9026, Sigma) as housekeeping control protein. HRP-conjugated goat anti-rabbit IgG (H+L) and HRP-conjugated horse anti-mouse IgG (H+L) are used as secondary Ab (#7074, #7076, Cell Signaling) and LumiGLO reagent, 20× Peroxide (#7003, Cell Signaling) is used for visualization.
BT-474 cells were treated with 0.5 μM, 2 μM, or 5 μM of 17AAG (a positive control) or 0.5 μM, 2 μM, or 5 μM of a compound of the invention overnight in DMEM medium. After treatment, each cytoplasmic sample was prepared from 1×10^6 cells by incubation of cell lysis buffer (#9803, Cell Signaling Technology) on ice for 10 minutes. […]

[2] = Exploratory small molecule PK study in rats; assay type: in vivo, male Sprague-Dawley rats; set-up: AUClast: unit not given here; conditions: rat; for half-life: male, Sprague-Dawley, plasma, read-out: T½ (converted)
Protocol: PK studies were conducted in male Sprague-Dawley rats. One group was dosed by IV (n=2) and another group was dosed orally (n=3). Blood samples were collected in lithium heparin coated microfuge tubes at 5 (IV only), 15, 30 min, 1, 3, 4, 6, 8, 24 h post dose. Samples were then centrifuged under refrigerated conditions and plasma was collected for analysis.
A solvent-based protein precipitation procedure was used to measure the concentration of each compound in plasma and/or whole blood. Samples were analyzed with an Agilent 1100 HPLC (Santa Clara, Calif.) interfaced to an API 4000 tandem mass spectrometer (Applied Biosystems, Foster City, Calif.) using a Synergy, Hydro-RP column (4 μm, 2×50 mm; Phenomenex, Torrance, Calif.) at a flow rate of 0.5 ml/min. Mobile phase consisted of 10 mM ammonium acetate in water (A) and 10 mM ammonium acetate in 95/5 (v/v) methanol/water (B). Total run time was 5 min with the gradient elution. […] All standard curves were fit to a quadratic equation with a weighing factor of 1/(concentration)^2 to calculate compound concentrations.

[3] = Caco-2 permeability assay; assay type: in vitro ADME; conditions: human
Protocol: Caco-2 cells were cultured on 24-well plates at 0.8×10^5 cells/cm^2 for approximately 20 days until TEER values were above 300 Ωcm^2. Caco-2 monolayers were rinsed twice with transport buffer (HBSS supplemented with 10 mM HEPES and 25 mM glucose, pH 7.4) and then pre-incubated for 30 min. Test and control compound solutions were loaded into the donor (A) or acceptor (B) compartments of a 24-well plate and incubated at 37° C. with 5% CO2 and 65% humidity for 2 h. For A to B permeability, the donor wells contained test compound and corresponding acceptor wells contained transport buffer. For B to A permeability, the […]. Atenolol and propranolol were used as low and high permeability compound controls, respectively. Digoxin was used was a P-gp substrate control. Cell viability was tested with Lucifer yellow at the end of the study.
Permeability was calculated as follows:
[formula] PappA to B={0.0005376×([Drug] Acceptor/[Drug] Initial)}
PappB to A={0.0001792×([Drug] Acceptor/[Drug] Initial)}
Polarization Ratio=PappB to A/PappA to B
Polarization ratio >2 considered as an efflux (P-gp) substrate.

Structure (SMILES): C=CCNC1=C2C[C@@H](C)C[C@H](OC)[C@H](O)[C@@H](C)/C=C(\C)[C@H](OC(N)=O)[C@@H](OC)/C=C\C=C(/C)C(=O)NC(=CC1=O)C2=O [Compound 17AAG, 17-allylamino-17-demethoxygeldanamycin]
- degradation of Her2 [1]: partial degradation of Her2

Structure (SMILES): CC(C)c1n[nH]c2cc(O)c(-c3nnc(C(=O)NCC(F)(F)F)n3-c3ccc(N4CCOCC4)cc3)cc12 [Compound 38, 5-(6-hydroxy-3-isopropyl-1H-indazol-5-yl)-4-(4-morpholinophenyl)-N-(2,2,2-trifluoroethyl)-4H-1,2,4-triazole-3-carboxamide]
- half-life ([2]; IV 5 mg/Kg, DPD): 2.3 h
- half-life ([2]; PO 25 mg/Kg, D5W): 10.7 h
- AUClast ([2]; IV 5 mg/Kg, DPD): 2.6
- F ([2]; PO 25 mg/Kg D5W vs IV 5 mg/Kg DPD): 0.52%
- AUClast ([2]; PO 25 mg/Kg, D5W): 0.07
- Papp A→B at 2 h ([3]; A to B, 2 h, 37° C., pH 7.4): 124 nm/s
- efflux ratio at 2 h ([3]; pH 7.4, ratio >2 considered as an efflux (P-gp) substrate, read-out: Pol. Ratio B-A/A-B): 2
